Data taken from PubChem BioAssay (NCI).
Values joined by “and” are separate entries in the source; they are usually repeats but may differ in a detail not shown here. Equal values may be shown once.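 Following 48 hours of exposure in 96-well plates, responses at five concentrations were used to interpolate endpoints linearly. GI50 marks 50% less growth. The concentration for full growth arrest is given as TGI.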

Key:
Experiment in all cases: NCI tumour cell line growth inhibition, 48 h
[1] = test system: NCI-H23 lung
[2] = test system: CCRF-CEM leukemia
[3] = test system: HCC-2998 colon
[4] = test system: HL-60(TB) leukemia
[5] = test system: IGROV1 ovarian
[6] = test system: UACC-62 melanoma
[7] = test system: ACHN renal
[8] = test system: PC-3 prostate
[9] = test system: SR leukemia
[10] = test system: HCT-116 colon

Compound	TGI [1] [µM]	TGI [2] [µM]	TGI [3] [µM]	TGI [4] [µM]	TGI [5]	TGI [6]	TGI [7] [µM]	TGI [8]	TGI [9]	TGI [10]	GI50 [3] [µM]	GI50 [5]	GI50 [8]	GI50 [9]	GI50 [10]	GI50 [1] [µM]	GI50 [2] [µM]	GI50 [4] [µM]	GI50 [6] [µM]	GI50 [7] [µM]
Cc1[nH]c(=O)[nH]c(=S)c1C(=O)Nc1cccc2cc3ccccc3cc12	> 100	> 100	> 100	> 100	> 100 µM	> 100 µM	> 100	> 100 µM	> 100 µM	> 100 µM	–	–	–	–	–	–	–	–	–	–
COC1(OC)c2no[n+]([O-])c2C(OC)(OC)c2c1no[n+]2[O-]	28.2	60.4	41.6	87.6	51 µM	24.3 µM	68.5	66.6 µM	31.6 µM	24.6 µM	–	–	–	–	–	–	–	–	–	–
O=C1C=CC(=O)c2c(O)c(N3CCN(CCOCCO)CC3)c(Cl)c(O)c21	–	–	–	–	3.2 µM [middle of 4 runs]	3.01 µM [middle of 4 runs]	–	3.23 µM [middle of 4 runs]	0.43 µM and 0.614 µM and 0.321 µM	801 nM [middle of 4 runs]	2.27	1.64 µM [middle of 4 runs]	1.67 µM [middle of 4 runs]	0.104 µM and 0.0382 µM and 0.0771 µM	333 nM [middle of 4 runs]	–	–	–	–	–
COc1ccc2nc3n(c2c1)CCc1cc(OC)c(OC)cc1-3	> 100	> 100	52.9	> 100	–	> 100 µM	> 100	> 100 µM	–	> 100 µM	–	–	–	–	–	–	–	–	–	–
CCC(CC(C)C)Nc1ccc(NC(CC)CC(C)C)cc1 (stereo unspecified)	46.3	27.8	36	30.2	78.7 µM	24.3 µM	28.5	16.3 µM	39.7 µM	28.3 µM	19.3	27.1 µM	4 µM	15.1 µM	14.1 µM	18.2	6.6	10.6	10.6	15.3
C#CCC1(C(=O)OCC)C(=O)c2ccccc2N(C)C1=O (stereo unspecified)	36.9	> 100	–	> 100	> 100 µM	> 100 µM	> 100	–	–	–	–	–	–	–	–	–	–	–	–	–
CC1OC2OC3C(OCC(O)C3O)OC(=O)[C@]34CCC(C)(C)CC3C3=CCC5[C@@]6(C)C[C@H](O)[C@H](OC7OC(CO)C(O)C(O)C7OC7OCC(OC(=O)CC(C)(O)CC(=O)OC1C(OC1OC(CO)C(O)C(O)C1O)C2O)C(O)C7O)[C@@](C)(CO)C6CC[C@@]5(C)[C@]3(C)CC4 (stereo partly specified)	14.1	28	8.52	6.29	16.2 µM	19.2 µM	17.9	16.9 µM	17 µM	16.5 µM	–	–	–	–	–	–	–	–	–	–
NCCC1CN(C(=O)OCc2ccccc2)c2ccccc21 (stereo unspecified)	41.8	–	33.9	–	33 µM	33.2 µM	> 54.6	> 36.2 µM	10.1 µM	15.6 µM	–	–	–	–	–	–	–	–	–	–
COC(=O)C1=C(O)C(C(=O)OC)[C@]2(O)[C@H](C(=O)OC)[C@H]1C[C@@H](c1ccc([N+](=O)[O-])cc1)[C@H]2C(=O)OC (stereo partly specified)	31.4	67	–	45.8	30.5 µM	29.1 µM	32.9	51.9 µM	–	32.3 µM	–	–	–	–	–	–	–	–	–	–
CCN(CC)c1nc(N(C)C)c2ccccc2n1	> 100	–	38.3	> 100	> 100 µM	56.1 µM	> 100	> 100 µM	27.5 µM	> 100 µM	–	–	–	–	–	–	–	–	–	–
C=C(C)[C@@H]1CC[C@]2(C(=O)O)CC[C@]3(C)[C@H](CCC4[C@@]5(C)CC[C@H](C(=O)/C=C/c6ccc(O)c(O)c6)C(C)(C)[C@@H]5CC[C@]43C)[C@@H]12 (stereo partly specified)	9.62	> 100	7	> 100	> 100 µM	27.6 µM	6.51	21.8 µM	> 100 µM	> 100 µM	–	–	–	–	–	–	–	–	–	–
Cc1ccc(-c2n[nH]c(=O)n2/N=C\c2ccccc2)cc1	> 100	> 100	> 100	> 100	> 100 µM	> 100 µM	> 100	> 100 µM	> 100 µM	> 100 µM	–	–	–	–	–	–	–	–	–	–
COC(=O)c1c(C)nc(C)c(NO)c1-c1ccccc1C(F)(F)F	84.3	> 100	> 100	> 100	35.6 µM	> 100 µM	71.6	> 100 µM	> 100 µM	29.9 µM	–	–	–	–	–	–	–	–	–	–
O=C1C=CC(=O)c2c(Cl)ccc(O)c21	17.1	> 100	> 100	18.5	21 µM	30.9 µM	–	–	–	23.5 µM	–	–	–	–	–	–	–	–	–	–
N/C(=N\Nc1ccc(S(N)(=O)=O)cc1)c1cnccn1	> 100	> 100	> 100	> 100	> 100 µM	> 100 µM	> 100	> 100 µM	> 100 µM	> 100 µM	–	–	–	–	–	–	–	–	–	–
CC(C)OC1OC(CO)C(O)CC1n1cc(F)c(=O)[nH]c1=O (stereo unspecified)	> 100	–	> 100	–	> 100 µM	> 100 µM	> 100	> 100 µM	–	> 100 µM	–	–	–	–	–	–	–	–	–	–
O=C1c2ccccc2-c2[nH]c3cn[nH]c(=O)c3c21	> 100	> 100	–	> 100	> 100 µM	> 100 µM	> 100	> 100 µM	> 100 µM	> 100 µM	–	–	–	–	–	–	–	–	–	–
C/C(=N\Nc1nc2ccccc2[nH]1)c1cc2ccccc2cn1	1.64	5.65	3.46	–	1.13 µM	1.09 µM	0.638	–	> 100 µM	1.04 µM	–	–	–	–	–	–	–	–	–	–
C(/Cc1ccc2c(c1)OCO2)=N\NC1=NCCCN1	> 100	> 100	> 100	> 100	> 100 µM	> 100 µM	> 100	> 100 µM	70.2 µM	> 100 µM	–	–	–	–	–	–	–	–	–	–
COC(=O)c1c(-c2ccc(Cl)cc2)cc2c3ccccc3n(C)c2c1C(=O)OC	> 100	> 100	–	> 100	> 100 µM	> 100 µM	> 100	> 100 µM	–	> 100 µM	–	–	–	–	–	–	–	–	–	–
CC(C)(C)OC(=O)n1cc(C2CN(O)C(=O)C23CCC(=O)N3Cc2ccccc2)c2ccccc21 (stereo unspecified)	> 100	> 100	–	> 100	48.5 µM	> 100 µM	–	> 100 µM	> 100 µM	> 100 µM	–	–	–	–	–	–	–	–	–	–
